Earlier results, collected in US6669955B2, “Combination dosage form containing individual dosage units of a cholesterol-lowering agent, an inhibitor of the renin-angiotensin system, and aspirin” (Longwood Pharmaceutical Research, Inc., priority 2001, dated 2003).

Key:
[1] = system: patients at risk for cardiovascular events; settings: daily administration of low doses (approximately 80 mg); cited from earlier work
blood pressure = settings: relative to angiotensin II; cited from earlier work

Compound | reduction of second heart attacks, strokes, and cardiovascular deaths [1] | hypertensive activity, as share of that of angiotensin II (blood pressure)
CC(=O)Oc1ccccc1C(=O)O [aspirin, acetylsalicylic acid] | at least 25% | 
angiotensin I (DRVYIHPFHL; Angiotensin-1; UniProt P01019 25-34, looked up) [decapeptide formed by renin acting on angiotensinogen] |  | about 1%
